The text below walks through data of US7304077B2, “Chemical compounds” (AstraZeneca AB, priority 2001, dated 2007).

Structures are written as SMILES.

In general, melting point refers to the temperature of the solid-liquid transition. Consider `COc1cccc(C(=O)N(C)CCN2CCC(Oc3ccc(F)c(F)c3)CC2)c1.Cl`, for which the melting point stood at 218 °C.
The figure for `CS(=O)(=O)c1cccc(C(=O)NCCN2CCC(Oc3ccc(Cl)c(Cl)c3)CC2)c1.Cl` is 219 °C.
Consider `CS(=O)(=O)c1cccc(C(=O)NCCCN2CCC(Oc3ccc(Cl)c(Cl)c3)CC2)c1.Cl`, for which the melting point amounted to 212 °C.
The figure for `CS(=O)(=O)Cc1cccc(C(=O)NCCN2CCC(Oc3ccc(Cl)c(Cl)c3)CC2)c1` [Compound 5 of Table I, N-{2-[4-(3,4-dichlorophenoxy)-1-piperidinyl]ethyl}-3-[(methylsulfonyl)methyl]benzamide] is 112 to 114 °C; for `CS(=O)(=O)Cc1ccc(C(=O)NCCN2CCC(Oc3ccc(Cl)c(Cl)c3)CC2)cc1` [Compound 7 of Table I, N-{2-[4-(3,4-dichlorophenoxy)-1-piperidinyl]ethyl}-4-[(methylsulfonyl)methyl]benzamide] it is 179 to 181 °C.
On to `CS(=O)(=O)Nc1cccc(C(=O)NCCN2CCC(Oc3ccc(Cl)c(Cl)c3)CC2)c1` [Compound 24 of Table I, N-{2-[4(3,4-dichlorophenoxy)-1-piperidinyl]ethyl}-3-[(methylsulfonyl)amino]benzamide], for which the melting point lay in the range of 150 to 151 °C.
The figure for `O=C(Cn1nnc(N2CCCC2)n1)NCCN1CCC(Oc2ccc(Cl)c(Cl)c2)CC1` [Compound 34 of Table II, N-{2-[4-(3,4-dichlorophenoxy)-1-piperidinyl]ethyl}-2-[5-(1-pyrrolidinyl)-2H-tetraazol-2-yl]acetamide] is 114 to 116 °C.
`NS(=O)(=O)c1cccc(C(=O)NCCN2CCC(Oc3ccc(Cl)c(Cl)c3)CC2)c1` [Example 22, 3-(aminosulfonyl)-N-{2-[4-(3,4-dichlorophenoxy)-1-piperidinyl]ethyl}benzamide] registered a melting point of 168 to 169 °C.
`CCn1cc(C(=O)NCCN2CCC(Oc3ccc(Cl)c(Cl)c3)CC2)c(=O)c2ccc(C)nc21` [Example 23, N-{2-[4-(3,4-dichlorophenoxy)-1-piperidinyl]ethyl}-1-ethyl-7-methyl-4-oxo-1,4-dihydro[1,8]naphthyridine-3-carboxamide]: the melting point is 169 to 217 °C.
Regarding `CS(=O)(=O)c1ccc(C(=O)NCCN2CCC(Oc3ccc(Cl)c(Cl)c3)CC2)s1` [Example 27, N-{2-[4-(3,4-dichlorophenoxy)-1-piperidinyl]ethyl}-5-(methylsulfonyl)-2-thiophenecarboxamide], the melting point was in the range of 142 to 143 °C.
Under `O=C(NCCN1CCC(Oc2ccc(Cl)c(Cl)c2)CC1)c1ccc(-n2cccn2)nc1` [Example 28, N-{2-[4-(3,4-dichlorophenoxy)-1-piperidinyl]ethyl}-6-(1H-pyrazol-1-yl)nicotinamide] stands 154 to 155 °C.
The figure for `CS(=O)(=O)c1ccc(C(=O)NCCN2CCC(Oc3ccc(Cl)c(Cl)c3)CC2)cc1` [Example 29, N-{2-[4-(3,4-dichlorophenoxy)-1-piperidinyl]ethyl}-4-(methylsulfonyl)benzamide] is 100 to 101 °C.
Under `O=C(NCCN1CCC(Oc2ccc(Cl)c(Cl)c2)CC1)c1cn2ccccc2n1` [Example 30, N-{2-[4-(3,4-dichlorophenoxy)-1-piperidinyl]ethyl}imidazo[1,2-a]pyridine-2-carboxamide] stands 150 to 151 °C; under `O=C(NCCN1CCC(Oc2ccc(Cl)c(Cl)c2)CC1)c1nnc(Nc2ccccc2Cl)o1` [Example 31, 5-(2-chloroanilino)-N-{2-[4-(3,4-dichlorophenoxy)-1-piperidinyl]ethyl}-1,3,4-oxadiazole-2-carboxamide], 161 to 162 °C; under `O=C(NCCN1CCC(Oc2ccc(F)cc2Cl)CC1)c1ccc(-n2cccn2)nc1` [Example 32, N-{2-[4-(2-chloro-4-fluorophenoxy)-1-piperidinyl]ethyl}-6-(1H-pyrazol-1-yl)nicotinamide], 109 to 110 °C.
With `CS(=O)(=O)c1cccc(C(=O)NCCN2CCC(Oc3ccc(F)cc3Cl)CC2)c1` [Example 33, N-{2-[4-(2-chloro-4-fluorophenoxy)-1-piperidinyl]ethyl}-3-(methylsulfonyl)benzamide], the melting point lay in the range of 50 to 51 °C.
The figure for `Cc1c(Cl)ccc(OC2CCN(CCNC(=O)c3ccc(S(C)(=O)=O)cc3)CC2)c1Cl` [Example 34, N-{2-[4-(2,4-dichloro-3-methylphenoxy)-1-piperidinyl]ethyl}-4-(methylsulfonyl)benzamide] is 171 to 172 °C; for `Cc1c(Cl)ccc(OC2CCN(CCNC(=O)c3ccc(S(C)(=O)=O)s3)CC2)c1Cl` [Example 35, N-{2-[4-(2,4-dichloro-3-methylphenoxy)-1-piperidinyl]ethyl}-5-(methylsulfonyl)-2-thiophenecarboxamide] it is 177 to 178 °C.
The figure for `Cc1c(Cl)ccc(OC2CCN(CCNC(=O)c3ccccc3S(C)(=O)=O)CC2)c1Cl` [Example 36, N-{2-[4-(2,4-dichloro-3-methylphenoxy)-1-piperidinyl]ethyl}-2-(methylsulfonyl)benzamide] is 71 to 72 °C; for `Cc1cc(OC2CCN(CCNC(=O)c3ccc(S(C)(=O)=O)cc3)CC2)ccc1Cl` [Example 37, N-{2-[4-(4-chloro-3-methylphenoxy)-1-piperidinyl]ethyl}-4-(methylsulfonyl)benzamide] it is 123 to 124 °C.
Under `Cc1cc(OC2CCN(CCNC(=O)c3ccc(-n4cccn4)nc3)CC2)ccc1Cl` [Example 38, N-{2-[4-(4-chloro-3-methylphenoxy)-1-piperidinyl]ethyl}-6-(1H-pyrazol-1-yl)nicotinamide] stands 183 to 184 °C; under `NS(=O)(=O)c1cc(C(=O)NCCN2CCC(Oc3ccc(F)c(F)c3)CC2)ccc1Cl` [Example 40, 3-(aminosulfonyl)-4-chloro-N-{2-[4-(3,4-difluorophenoxy)-1-piperidinyl]ethyl}benzamide], 80 to 81 °C; under `N#Cc1ccccc1C(=O)NCCN1CCC(Oc2ccc(F)c(F)c2)CC1` [Example 41, 2-cyano-N-{2-[4-(3,4-difluorophenoxy)-1-piperidinyl]ethyl}benzamide], 146 to 147 °C.
With `CS(=O)(=O)c1ccc(C(=O)NCCN2CCC(Oc3ccc(F)c(F)c3)CC2)c(Cl)c1` [Example 42, 2-chloro-N-{2-[4-(3,4-difluorophenoxy)-1-piperidinyl]ethyl}-4-(methylsulfonyl)benzamide], the melting point was 108 to 109 °C.
`N#Cc1cccc(C(=O)NCCN2CCC(Oc3ccc(F)c(F)c3)CC2)c1` [Example 43, 3-cyano-N-{2-[4-(3,4-difluorophenoxy)-1-piperidinyl]ethyl}benzamide] showed a melting point of 106 to 107 °C.
The figure for `CS(=O)(=O)Cc1ccc(C(=O)NCCN2CCC(Oc3ccc(F)c(F)c3)CC2)cc1` [Example 44, N-{2-[4-(3,4-difluorophenoxy)-1-piperidinyl]ethyl}-4-[(methylsulfonyl)methyl]benzamide] is 115 to 116 °C.
